{"source": "patent US20210061861A1", "about": "“D-PEPTIDIC COMPOUNDS FOR VEGF” (Reflexion Pharmaceuticals, Inc., priority 2019, published 2021)", "key": {"[1]": {"test_system": "HUVEC cell proliferation", "excerpt": "Here, HUVEC cell proliferation is increased in the presence of recombinant VEGF-A and antagonist compounds that block VEGF-A signaling reduce HUVEC cell proliferation."}, "[2]": {"test_system": "VEGF-A signaling through VEGFR2", "assay": "VEGFR2 luciferase reporter cell signaling assay (KDR/NFAT-RE HEK293)", "type": "cell-based", "details": "150 pM VEGF-A; read-out: IC50, inhibition of VEGFR2 signaling (luciferase)", "description": "Here VEGF-A activates VEGFR2 signaling in 293 cells resulting in luciferase expression as a functional readout. Inhibition of VEGF-A signaling in this system results in a loss of luciferase signal.\nMeasurement of VEGF cellular signaling was performed using the VEGF Bioassay (Promega). Briefly, HEK293 cells are engineered to express VEGFR-2 coupled to a luciferase response element (KDR/NFAT-RE HEK293). VEGF signaling through VEGFR-2 mediates expression of luciferase which can be quantified using bioluminescence. […] Following incubation Bio-Glo is added to wells according to the manufacturer's protocol and relative luminescence units (RLUs) were measured on a PerkinElmer 2300 Enspire Multimode plate reader. Data plotted are mean±standard deviation of triplicate measurements. IC50 values were derived from 3-parameter fits using Prism (GraphPad) and error reported are derived from fits."}, "[3]": {"molecular_target": "T1, VEGF-A (Homo sapiens, UniProt P15692)", "T1 sequence (P15692 214-315)": "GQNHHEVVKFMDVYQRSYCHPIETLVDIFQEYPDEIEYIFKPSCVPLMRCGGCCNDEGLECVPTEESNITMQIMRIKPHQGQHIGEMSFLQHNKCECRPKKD", "assay": "SPR binding of D-peptidic compounds to L-VEGF-A", "set-up": "Biotinylated VEGF-A(8-109) was immobilized on a biotin CAPture chip", "details": "for affinity improvement over 11055: SPR KD ratio versus parent 11055", "description": "Surface plasmon resonance (SPR) binding measurements were carried out on a Biacore S200 (GE). Biotinylated VEGF-A(8-109) was immobilized on a biotin CAPture chip (GE) and serial dilutions of D-proteins were flowed over the chip at 30 μL/min in running buffer (10 mM Hepes, pH 7.4, 150 mM NaCl, 0.05% P20). […] All measurements were carried out at 25° C. SPR data are representative of multiple independent titrations. Kinetic fits were performed using Biacore software using a global single site binding model."}, "[4]": {"molecular_target": "T2, VEGF-A121 binding to VEGFR1-Fc (Homo sapiens, UniProt P15692)", "T2 construct": "purchased Acro Biosystems (VEGF-A121); R&D Systems (VEGFR1-Fc) VE1-H82E7; 3516-FL-050", "T2 sequence (P15692 27-147 isoform P15692-9 limits assumed)": "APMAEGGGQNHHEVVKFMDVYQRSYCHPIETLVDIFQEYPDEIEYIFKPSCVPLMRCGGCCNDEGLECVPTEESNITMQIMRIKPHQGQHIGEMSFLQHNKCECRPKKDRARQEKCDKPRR", "assay": "non-equilibrium VEGF-A blocking ELISA on VEGFR1-Fc", "type": "biochemical", "details": "for improvement of IC50 over 11055: non-equilibrium blocking ELISA"}, "[5]": {"molecular_target": "T2, VEGF-A121 binding to VEGFR1-Fc", "assay": "equilibrium binding VEGF-A121/VEGFR1 blocking ELISA", "type": "biochemical", "details": "IC50, blocking VEGF-A binding to VEGFR1-Fc, 150 pM VEGF-A, overnight incubation", "excerpt": "Biotinylated human VEGF-A121 (isoform 121) was purchased from Acro Biosystems (cat #VE1-H82E7). VEGFR-1-Fc was purchased from R&D Systems (cat #3516-FL-050).\nThe following day, coated wells were blocked with Super Block (Rockland) for 2 hr with shaking at room temp.\nData plotted are mean±standard deviation of triplicate measurements. IC50 values were derived from 3-parameter fits using Prism (GraphPad) and the error reported is derived from fits."}, "[6]": {"test_system": "VEGF-A165-induced vascular leakage", "assay": "rabbit eye model of wet AMD, fluorescein angiography", "type": "in vivo", "details": "single intravitreal dose 1.0 mg", "source_text": "FIG. 44A-44B show in vivo activity of D-protein RFX-980869 in a rabbit eye model of wet AMD. (FIG. 44A) Representative fluorescein angiography (FA) images depicting the extent of VEGF-A165-induced vascular leakage at Day 5 and Day 26 post administration of respective drugs (control=no drug treatment). (FIG. 44B) Plots of individual FA scores at Day 5 and Day 26. Scoring is as follows: 0=major vessels straight with some tortuosity of small vessels and no dilation, 1=increased tortuosity of major vessels and some dilation, 2=leakage between major vessels and significant dilation, 3=leakage between major and minor vessels and minor vessels still visible, 4=leakage between major and minor vessels and minor vessels poorly visible or not visible. N=5 rabbits per group (10 eyes). All data is plotted as mean±SEM. (****p<0.0001, Mann-whitney test)\nIn the rabbit eye model for wet AMD, intravitreal challenge with exogenous VEGF-A165 induces vascular leakage of the retina that can be monitored using fluorescein angiography (FA). VEGF-A blockade can prevent the diffuse leakage of fluorescein into the eye, which serves as a measure of efficacy. […] After a single intravitreal administration of RFX-980869 at 0.25 mg or 1.0 mg per eye, rabbits were challenged with exogenous VEGF-A twice over a 1-month period (Day 2 and Day 23) and their eyes were examined three days later (Day 5 and Day 26). […]"}, "[7]": {"assay": "subcutaneous immunization in BALB/c mice", "details": "Day 42 serum; 25 μg s.c. Days 0, 21, 35, adjuvant on Day 0", "description": "Female BALB/c mice (6-8 weeks) were randomized into immunization groups on Day 0 (n=5 per group) Immunizations were performed on Days 0, 21, 35 by subcutaneous injection of 25 μg of antigen. Antigens were emulsified in adjuvant (TiterMax) for injection on Day 0 and administered in PBS for Days 21 and 35. Serum pre-bleeds were performed on Days 0, 21, 35 prior to immunizations. Final bleeds for max titer response were taken on Day 42."}, "[8]": {"assay": "anti-drug antibodies in serum of the MC38 tumor study", "type": "in vivo, mouse", "details": "Day 22 serum, low and high dose groups", "source_text": "FIG. 45A-45D show tumor growth inhibition activity of RFX-980869 and lack of immunogenicity. […] N=6 mice per group. (FIG. 45B) Day 15 tumor volumes (*p<0.05, Mann-whitney test) (FIG. 45C) Anti-drug-antibodies from MC38 tumor study measured in Day 22 serum samples using an ELISA for antigen-specific serum IgG. (FIG. 45D) Anti-drug-antibody titers measured from Day 42 serum after subcutaneous immunization of corresponding drugs in BALB/c mice. N=5 mice per group. All data is plotted as mean±SEM."}, "[9]": {"test_system": "MC38 colon cancer tumors", "assay": "MC38 syngeneic tumor model in C57BL6 mice", "type": "in vivo, mouse", "source_text": "To assess the tumor growth inhibition potential of RFX-980869, the cross-reactivity of RFX-980869 with mouse VEGF-A (data not shown) was studied and used the syngeneic MC38 mouse tumor model. MC38 colon cancer tumors were established in C57BL6 mice transgenic for human PD-1, and reached 82 mm3 prior to initiation of treatment.\nFemale C57BL6 mice transgenic for human PD-1 (12-13 weeks) were purchased from Beijing Biocytogen Co.). […] MC38 tumor cells (1×10^6) were implanted subcutaneously in the right front flank and tumors were allowed to establish until the mean volume was 82 mm^3. Mice were randomized into treatment groups (N=6 per group) on Day 0 when treatment initiation began. […] All data is plotted as mean ±SEM."}, "[10]": {"molecular_target": "D-VEGF-A", "assay": "competitive phage ELISA, D-VEGF-A binding of L-peptidic compounds", "details": "D-VEGF-A binding activity", "description": "Compounds of interest were assessed for VEGF-A binding in a competitive phage ELISA assay."}}, "note": "pIC50, pKd: −log10 of the molar value. Several values for one entry are separate records, joined by “and”; a condition that tells them apart may be missing. Identical values can stand only once. Bridges are numbered along the chain shown (N, C = ends). Where no end group is shown, it is not given here. [ ]: non-standard residue; d: D form.", "data": [{"substance": "[dY][dH][dI][dQ][dW][dV][dC][dK][dN][dA][dK][dE][dD][dA][dI][dA][dE][dL][dK][dK][dA]G[dI][dT][dE][dP][dH][dV][dI][dS][dF][dI][dN][dH][dA][dP][dN][dC][dS][dH][dV][dN]G[dL][dK][dN][dA][dI][dL][dK][dA][dH][dA]-NH2 (disulfide 7-38) [Compound 979110, yhiqwvcknakedaiaelkkaGitephvisfinhapncshvnGlknailkaha]", "values": [{"measurement": "fold weaker than bevacizumab (Avastin)", "setting": "[1]; HUVEC proliferation", "result": 185, "unit": "fold"}, {"measurement": "potency improvement over 11055", "setting": "[1]; HUVEC proliferation", "result": 4, "unit": "fold"}, {"measurement": "pIC50", "setting": "[1]; read-out: IC50 for inhibition of cell proliferation in response to VEGF signaling, HUVEC, recombinant VEGF-A", "result": 6.88}, {"measurement": "pIC50", "setting": "[2]", "result": 8.21}, {"measurement": "affinity improvement over 11055", "setting": "[3]", "result": "~10", "unit": "fold"}, {"measurement": "affinity improvement over 11055", "setting": "[3]; listed as RFX-979110", "result": 19, "unit": "fold"}, {"measurement": "pKd", "setting": "[3]; VEGF-A binding affinity (KD) measured by SPR, running text and figure legends, L-VEGF-A", "result": "8.44 and 8.64"}, {"measurement": "pIC50", "setting": "[4]", "result": 8.46}, {"measurement": "improvement of IC50 over 11055", "setting": "[4]", "result": 14.8, "unit": "fold"}, {"measurement": "improvement of IC50 over 11055", "setting": "[4]; listed as RFX-979110", "result": 15, "unit": "fold"}, {"measurement": "pIC50", "setting": "[5]", "result": "8.15 and 8.12"}]}, {"substance": "aflibercept", "values": [{"measurement": "vascular leakage at Day 26", "setting": "[6]", "result": "completely blocked vascular leakage"}]}, {"substance": "nivolumab", "values": [{"measurement": "anti-drug-antibody IgG titer after immunization", "setting": "[7]", "result": "strong IgG titers"}, {"measurement": "anti-drug-antibodies, antigen-specific serum IgG titer", "setting": "[8]", "result": "saturating levels of IgG titer"}, {"measurement": "tumor growth versus vehicle control group", "setting": "[9]; 1 mg/kg biweekly, i.p.", "result": "failed to show tumor growth inhibition"}, {"measurement": "MC38 tumor growth curves", "setting": "[9]; FIG. 45A, over both dose levels", "result": "dose-dependent efficacy"}, {"measurement": "tumor growth inhibition", "setting": "[9]; day 15, 3 mg/kg biweekly", "result": 48, "unit": "%"}]}, {"substance": "tidqwllknakedaiaelkkcGitephvisfinhapyvshvnGlkanilkaha [Compound 1.1.1]", "values": [{"measurement": "pIC50", "setting": "[10]", "result": "7.47 to 7.70"}]}]}
